# Laboratory results from paper PMC6043591, “Rpn11-mediated ubiquitin processing in an ancestral archaeal ubiquitination system” (Nature Communications, 2018).
# Key:
# CsJAMM = molecular target: T1, CsJAMM (Candidatus Caldarchaeum subterraneum, UniProt E6N2R7); assay: SDS-PAGE of SAMP Csub_C0702 precursor cleavage; assay type: biochemical; details: […] SAMP Csub_C0702, […] enzyme, […] °C, pH […] min preincubation
# T1 construct: gene CSUB_C0703; N-terminal His6 tag with TEV site; synthetic gene, E. coli
# T1 sequence (E6N2R7 1-140): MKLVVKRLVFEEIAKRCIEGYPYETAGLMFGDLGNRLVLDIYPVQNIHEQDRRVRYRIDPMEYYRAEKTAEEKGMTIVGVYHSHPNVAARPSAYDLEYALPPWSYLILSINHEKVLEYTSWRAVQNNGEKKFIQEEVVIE
# CsRpn11^Δ149–202 = molecular target: T2, CsRpn11^Δ149–202 (Candidatus Caldarchaeum subterraneum, UniProt E6N8B9); assay: SDS-PAGE of CsUb-pre cleavage; assay type: biochemical; details: 14 µM CsUb-pre, 1.75 µM enzyme, 45 °C, pH 7.5, 10 min preincubation; proposed coordination of catalytic Zn2+
# T2 construct: gene CSUB_C1473; JAMM core domain, C-terminal residues 149-202 deleted (full length 202); N-terminal His6 tag with TEV site
# [1] = molecular target: truncated CsRpn11^Δ149–202 (Candidatus Caldiarchaeum subterraneum)
# [2] = molecular target: truncated CsRpn11^Δ149–202 (Candidatus Caldiarchaeum subterraneum); assay: MST; 50 nM NT-647-labeled CsRpn11^Δ149–202 mixed with a serial 1:1 dilution of CsUb from 47 nM to 770 µM; 45 °C; Monolith NT.115, MST power 80%, laser intensity 40%; three independent experiments
"KM of CsUb-pre cleavage by Co^2+-bound CsRpn11^Δ149–202 at 45 °C, quantified from SDS-PAGE bands [1] [µM]",Kd [2] [µM],Molecule,SDS-PAGE of SAMP Csub_C0702 precursor cleavage (CsJAMM),SDS-PAGE of CsUb-pre cleavage (CsRpn11^Δ149–202)
–,–,Sc1cccc2cccnc12 [8-thioquinoline],effects on CsJAMM-mediated CsSAMP processing were significantly weaker,CsUb-pre processing by CsRpn11 was strongly affected by both 8-TQ and thiolutin
–,–,CC(=O)Nc1c2sscc-2n(C)c1=O [thiolutin],effects on CsJAMM-mediated CsSAMP processing were significantly weaker,CsUb-pre processing by CsRpn11 was strongly affected by both 8-TQ and thiolutin
17.8,–,CsUb precursor (CsUb-pre) (natural protein),–,–
–,14.6,mature C. subterraneum ubiquitin CsUb (natural protein),–,–
